From ChEMBL document CHEMBL1140892, “Synthesis and evaluation of rifabutin analogs against Mycobacterium avium and H(37)Rv, MDR and NRP Mycobacterium tuberculosis” (Bioorg Med Chem, 2009)
In brackets after ≈: the same amount, converted by molar mass. Activity calls are given as the source filed them. The calls are words filed in the database; no cut-off is given here.

Assays:
[1] = tested on: Mycobacterium tuberculosis; assay: Antimycobacterial activity against isoniazid, rifampicin and ethambutol-resistant Mycobacterium tuberculosis after 7 days by resazurin method; assay type: functional; details: 168 h
[2] = tested on: Mycobacterium tuberculosis; assay: Antimycobacterial activity against isoniazid, rifampicin and streptomycin-resistant Mycobacterium tuberculosis after 7 days by resazurin method; assay type: functional; details: 168 h
[3] = tested on: Mycobacterium tuberculosis; assay: Antimycobacterial activity against multidrug-resistant Mycobacterium tuberculosis infected in BALB/c mouse assessed as reduction of bacterial load in lungs at 5 mg/kg/day, intragastrically after 1 month relative to control; assay type: functional, organism-based

SMILES | MIC [1] [µg/mL] | MIC [2] [µg/mL] | Activity [3]
CCCCCCCCCCCCCCCC(=O)N1C2=C3NC(=O)/C(C)=C\C=C\[C@H](C)[C@H](O)[C@@H](C)[C@@H](O)[C@@H](C)[C@H](OC(C)=O)[C@H](C)[C@@H](OC)/C=C/O[C@@]4(C)Oc5c(C)c(O)c(c(c5C4=O)C2=NC12CCN(CC(C)C)CC2)C3=O | > 10 | > 10 | –
CO[C@H]1/C=C/O[C@@]2(C)Oc3c(C)c(O)c4c(c3[C@H]2O)C2=NC3(CCN(CC(C)C)CC3)N(C(C)=O)C2=C(NC(=O)/C(C)=C\C=C\[C@H](C)[C@H](O)[C@@H](C)[C@@H](O)[C@@H](C)[C@H](OC(C)=O)[C@@H]1C)C4=O | 8 (≈ 8.98 µM) | 8 (≈ 8.98 µM) | –
CO[C@H]1/C=C/O[C@@]2(C)Oc3c(C)c(O)c4c(c3C2=O)C2=NC3(CCN(CC(C)C)CC3)NC2=C(NC(=O)/C(C)=C\C=C\[C@H](C)[C@H](O)[C@@H](C)[C@@H](O)[C@@H](C)[C@H](O)[C@@H]1C)C4=O | > 10 | > 10 | –
CO[C@H]1/C=C/O[C@@]2(C)Oc3c(C)c(O)c4c(c3C2=O)C2=NC3(CCN(CC(C)C)CC3)NC2=C(NC(=O)/C(C)=C\C=C\[C@H](C)[C@H](O)[C@@H](C)[C@@H](O)[C@@H](C)[C@H](OC(C)=O)[C@@H]1C)C4=O [RIFABUTIN] | > 10 | > 10 | Active
CO[C@H]1/C=C/O[C@@]2(C)Oc3c(C)c(O)c4c(c3C2=O)C2=NC3(CCN(CC(C)C)CC3)N(C(C)=O)C2=C(NC(=O)/C(C)=C\C=C\[C@H](C)[C@H](O)[C@@H](C)[C@@H](O)[C@@H](C)[C@H](OC(C)=O)[C@@H]1C)C4=O | > 10 | > 10 | Active
CO[C@H]1/C=C/O[C@@]2(C)Oc3c(C)c(O)c4c(c3[C@H]2O)C2=NC3(CC[N+]([O-])(CC(C)C)CC3)NC2=C(NC(=O)/C(C)=C\C=C\[C@H](C)[C@H](O)[C@@H](C)[C@@H](O)[C@@H](C)[C@H](OC(C)=O)[C@@H]1C)C4=O (stereo partly drawn) | > 10 | > 10 | –
C=CCCCCCCCCC(=O)N1C2=C3NC(=O)/C(C)=C\C=C\[C@H](C)[C@H](O)[C@@H](C)[C@@H](O)[C@@H](C)[C@H](OC(C)=O)[C@H](C)[C@@H](OC)/C=C/O[C@@]4(C)Oc5c(C)c(O)c(c(c5C4=O)C2=NC12CCN(CC(C)C)CC2)C3=O | 6 (≈ 5.92 µM) | 6 (≈ 5.92 µM) | Active
CO[C@H]1/C=C/O[C@@]2(C)Oc3c(C)c(O)c4c(c3[C@H]2O)C2=NC3(CCN(CC(C)C)CC3)NC2=C(NC(=O)/C(C)=C\C=C\[C@H](C)[C@H](O)[C@@H](C)[C@@H](O)[C@@H](C)[C@H](O)[C@@H]1C)C4=O | > 10 | > 10 | –
CO[C@H]1/C=C/O[C@@]2(C)Oc3c(C)c(O)c4c(c3C2=O)C2=NC3(CC[N+]([O-])(CC(C)C)CC3)NC2=C(NC(=O)/C(C)=C\C=C\[C@H](C)[C@H](O)[C@@H](C)[C@@H](O)[C@@H](C)[C@H](OC(C)=O)[C@@H]1C)C4=O (stereo partly drawn) | > 10 | > 10 | –
CO[C@H]1/C=C/O[C@@]2(C)Oc3c(C)c(O)c4c(c3C2=O)C2=NC3(CC[N+]([O-])(CC(C)C)CC3)NC2=C(NC(=O)/C(C)=C\C=C\[C@H](C)[C@H](O)[C@@H](C)[C@@H](O)[C@@H](C)[C@H](O)[C@@H]1C)C4=O (stereo partly drawn) | > 10 | > 10 | –
